In series [1] the target is T1, AGT (Homo sapiens, UniProt P16455).
T1 sequence (P16455 1-207): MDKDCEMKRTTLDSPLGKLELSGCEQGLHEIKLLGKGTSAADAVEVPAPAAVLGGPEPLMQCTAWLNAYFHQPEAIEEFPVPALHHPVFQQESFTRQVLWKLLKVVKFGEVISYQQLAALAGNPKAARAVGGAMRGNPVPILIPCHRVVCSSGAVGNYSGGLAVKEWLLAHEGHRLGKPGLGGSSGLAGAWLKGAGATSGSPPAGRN
Nature of the series: Inactivation of cellular AGT in CHO cells expressing human AGT (CHO-AGT). As to conditions: read-out: Inactivation of AGT, ED50 after 4 h exposure. On the set-up: expressed in transfected cells; host or cells: Chinese hamster ovary (CHO) cells. The class given is cell-based. The method, then: (§1) The cells were then harvested and the AGT activity determined.
(§2) AGT activity assays--Extracts were prepared and AGT activity was determined as described by Dolan et al. (Dolan, et al., 1990, Proc. Natl. Acad. Sci. U.S.A. 87: 5368-5372) by incubation for 30 min at 37° C. with a [^3 H]methylated calf thymus DNA substrate prepared by reaction of DNA with N-[^3 H]methyl-N-nitrosourea (Amersham Inc., Arlington Hts., Ill.). The AGT activity of the cells was then expressed as fmol of O^6 -methylguanine removed per mg of protein present in the cell extracts. Protein was determined by the method of Bradford (Bradford, 1976, Anal. Biochem. 72: 248-254). […] After 4 h exposure, the cells were harvested and washed with PBS. Cell pellets were stored at -80° C. until assayed. Extracts were then prepared and AGT activity determined. The results were expressed as the percentage of the AGT activity present in cultures to which no drug was added.

Series [2] deals with CHO cells expressing P140A AGT. The series can be described thus: Sensitization to killing by 80 μM BCNU, colony forming assay, CHO cells expressing P140A AGT. The series is classed as cell-based, Chinese hamster. As to conditions: with 80 μM BCNU. Here is the method: (§3) FIG. 6a and FIG. 6b show the effect of different concentrations of BG (FIG. 6a) and 5-nitroso-BP (FIG. 6b) on killing of cells by BCNU. Cells were treated with BG or 5-nitroso-BP at the concentrations indicated for 2 h and BCNU at 80 μM was added for 2 h. Medium was replaced with fresh medium also containing the AGT inhibitor but not BCNU for the period of 18 h. The cells were then replated as described in materials and methods and colonies were counted 7-8 days later.
(§4) Cytotoxicity assays--Cell killing was determined using a colony forming assay (Pegg, et al., 1995, Biochem. Pharmacol. 50: 1141-1148; Dolan, et al., 1986, Cancer Res. 46: 4500-4504). The cells were plated using 10^6 cells per 25 cm^2 flask and grown for 24 h. After 2 h of incubation with either BG or 5-nitroso-BP, 80 μM BCNU was added for 2 h. The medium was then replaced with fresh medium also containing the AGT inactivator and the cells were left at 37° C. for an additional 16-18 h. The cells were then replated at densities of 100 to 1000 cells per 25 cm^2 flask and grown for 7-8 days until discrete colonies could be stained and counted. The colonies were washed with 0.9% saline and stained with crystal violet and counted.

Series [3] concerns CHO cells expressing control AGT. The series can be described thus: Sensitization to killing by 80 μM BCNU, colony forming assay, CHO cells expressing control AGT. The series is classed as cell-based, Chinese hamster. The settings on record: with 80 μM BCNU. The method, then: as §3, §4
In series [4] the test system is CHO cells expressing G156A AGT. Nature of the series: Sensitization to killing by 80 μM BCNU, colony forming assay, CHO cells expressing G156A AGT. The series is classed as cell-based, Chinese hamster. The method, then:
as §3, §4

The test system of series [5] is AGT. As to conditions: HT29 cells; read-out: Inactivation of AGT, ED50 after 4 h exposure; cited from earlier work.
The test system of series [6] is CHO cells expressing mutant AGTs. Nature of the series: Effect of AGT inhibitors alone on colony formation. The settings on record: inhibitor alone, 18-20 h, cells expressing G156A. The series is classed as cell-based, Chinese hamster. The method, then: FIG. 5 show the effect of different concentrations of BG and 5-nitroso-BP on colony formation. BG was added to CHO cells expressing mutant AGTs P140 (.circle-solid.) and G156A (.quadrature.) and 5-nitroso-BP was added to cells expressing G156A (.box-solid.) for 18-20 h. The cells were then replated as described in materials and methods and colonies were counted 7-8 days later.
as §4

Series [7] has as its target T2, human AGT mutant P140A (Homo sapiens, UniProt P16455, P140A).
T2 construct: expressed in transfected cells; host or cells: Chinese hamster ovary (CHO) cells
T2 sequence (P16455 1-207 P140A): T1 sequence (P16455 1-207) with P140A
The series can be described thus: Inactivation of cellular AGT in CHO cells expressing mutant P140A (CHO-P140A). The class given is cell-based. The settings on record: for Increase of ED50 with P140A AGT: relative to control AGT in CHO cells, 240 min. Here is the method:
as §1, §2

The target in series [8] is T3, human AGT mutant G156A (Homo sapiens, UniProt P16455, G156A).
T3 construct: expressed in transfected cells; host or cells: Chinese hamster ovary (CHO) cells
T3 sequence (P16455 1-207 G156A): T1 sequence (P16455 1-207) with G156A
Nature of the series: Inactivation of cellular AGT in CHO cells expressing mutant G156A (CHO-G156A). The series is classed as cell-based. As to conditions: for Increase of ED50 with G156A AGT: relative to control AGT in CHO cells, 240 min. Here is the method:
as §1, §2

Series [9] concerns Control CHO cells. Nature of the series: Colony forming assay, killing of control CHO cells by BCNU. The series is classed as cell-based, Chinese hamster. As to conditions: 2 h, after 80 μM BCNU, read-out: survival. Here is the method:
(§5) Control CHO cells (.tangle-solidup.) and CHO cells expressing human AGT (.smallcircle.) or its mutants P140A (.circle-solid.) and G156A (.quadrature.) were treated with BCNU at the concentration shown for 2 h. The medium was then replaced. After 16-18 h, the cells were replated as described in Example Section 6 and colonies were counted 7-8 days later.
as §4

Series [10] relates to lac Z transduced hematopoietic progenitor cells. Nature of the series: Clonogenic progenitor survival after BG and BCNU, lac Z transduced CD34+ cells. As to conditions: 10 μM BG and 10 μM BCNU, lac Z transduced progenitors. Here is the method: (§6) CD34^+ Transduction--Peripheral blood mononuclear cells were obtained by apheresis from patients treated with cyclophosphamide and G-CSF. CD34^+ progenitors were isolated using the Ceprate SC Stem Cell Concentrator (Cell Pro, Bothell, Wash.) according to manufacturer's directions. Briefly, cells were washed and incubated with biotinylated anti-CD34 antibody, passed over an avidin column and the bound fraction eluted by gentle agitation. […] At 48 hours, half of the media was removed, cells were pelleted and resuspended in fresh, supplemented media, and non-adherent cells were collected at 96 hours.
(§7) BCNU was dissolved in 100% ethanol and diluted to 10 mM with serum free media and immediately added to the cells. Following a two hour incubation at 37° C., cells were incubated in methylcellulose (Stem Cell Technologies, Inc.) containing either SCF, IL3, hemin, erythropoietin, GM-CSF (for CD34^+ cells) or GM-CSF and IL-3 (for K562 cells) in triplicate. […] After incubation for 7-10 days at 37° C. colonies were enumerated and survival was analyzed at each BCNU dose.

Series [11] concerns CHO cells expressing control or mutant AGT. Nature of the series: Colony forming assay, killing by BCNU of transfected CHO cells expressing control or mutant AGT. The class given is cell-based, Chinese hamster. The settings on record: up to 100 μM BCNU, highest concentration tested. Here is the method:
as §5, §4

Series [12] has as its system wtMGMT transduced K562 cells. The series can be described thus: Clonogenic survival in methylcellulose after BG and BCNU, wtMGMT transduced K562 cells. The class given is cell-based, human.
Series [13] relates to ΔMGMT transduced K562 cells. The series can be described thus: Clonogenic survival in methylcellulose after BG and BCNU, ΔMGMT transduced K562 cells. The class given is cell-based, human.
For series [14], the system named is untransduced K562 cells. Nature of the series: Clonogenic survival in methylcellulose after BG and BCNU, untransduced K562 cells. The series is classed as cell-based. The settings on record: Homo sapiens.
In series [15] the test system is ΔMGMT transduced CD34^+ cells. Nature of the series: Clonogenic progenitor survival after BG and BCNU, ΔMGMT transduced CD34+ cells. Here is the method:
as §6, §7

The target of series [16] is T4, wtAGT (Homo sapiens, UniProt P16455).
T4 sequence (P16455 1-207): T1 sequence (P16455 1-207)
Nature of the series: BG inactivation of AGT in wtMGMT transduced K562 cells. The settings on record: 5 μM BG.
Description: (§9) AGT Assay--AGT activity was measured as [^3 H]-methyl groups removed from [^3 H] O^6 -methylguanine present in [^3 H]-methylnitrosourea treated alkylated calf thymus DNA. The alkylated [^3 H-methyl] O^6 methylguanine and N^7 methylguanine bases were separated by HPLC and quantified by liquid scintillation. AGT activity was expressed as fmol O^6 mG removed/μg DNA or fmol O^6 removed/mgprotein.

Series [17] addresses T5, ΔAGT (G156A) (Homo sapiens, UniProt P16455, G156A).
T5 sequence (P16455 1-207 G156A): T1 sequence (P16455 1-207) with G156A
Nature of the series: cell-based. As to conditions: K562, read-out: AGT activity retained.
Description: as §9

Series [18] is described as follows: Solubility in aqueous media. The series is classed as physicochemical. An excerpt: (§8) Another embodiment of the present invention relates to the use of a mutant AGT protein, preferably a human AGT protein, resistant to inactivation by a compound shown to inactivate or at least substantially inactivate the DNA repair function of wild type AGT which include, but again are in no way limited to the O^6 -substituted guanosine and 2' deoxyguanisine compounds disclosed in U.S. Pat. No. 5,352,669 issued to Moschel, et al. on Oct. 4, 1994. […] Furthermore, escalation of the dBG dose was not restricted by solubility as with BG. Therefore, this class of compounds, as exemplified by dBG, will be useful in practicing the present invention whereby the skilled artisan identifies a related AGT mutant which imparts resistance to addition of dBG both in vitro and in vivo.

The target of series [19] is T1, AGT. The series can be described thus: In vitro screen of potential AGT-inhibiting BG analogs. The settings on record: versus BG and BGs modified at the benzyl ring.
Description: as §8

Series [20] deals with xenograft. The series can be described thus: In vivo xenograft system, potentiation of BCNU.
Description: as §8

Setting [21] is: Homo sapiens, K562, read-out: BCNU IC50, clonogenic survival.
The mark [22] stands for this setting: Homo sapiens, K562, read-out: BCNU IC90, clonogenic survival.

In general, IC90 refers to the concentration at which the effect reaches the 90% level.

Changes are numbered by the printed parent chain. Bounds are passed on as bounds.

For `Nc1nc(N)c(N=O)c(OCc2ccccc2)n1` [5-nitroso-BP, 2,4-diamino-6benzyloxy-5-nitrosopyrimidine], the IC50 in series [1] was 0.05 µM; in series [5], 0.02 µM; in series [7] (CHO-P140A cells, read-out: Inactivation of AGT, ED50 after 4 h exposure) it was 1.25 µM; in series [8] (CHO-G156A cells, read-out: Inactivation of AGT, ED50 after 4 h exposure), 5 µM. Also, in series [2], the “concentration needed to reduce colony formation to <1 per 1000 cells plated” value is “More than 25 μM”. For the same molecule, in [3], the “concentration required to reduce colony formation to <1 per 1000 cells plated” value was “about 5 μM”. In addition, the “concentration required to sensitize cells to BCNU” value in series [4] (with 80 μM BCNU) was above 40 µM. In series [6], the “concentrations reducing colony formation” value is “above 30 μM”. Also, the “Increase of ED50 with P140A AGT” value in series [7] worked out at 25 fold. Besides, in series [8], the “Increase of ED50 with G156A AGT” value turned out to be 100 fold.
For the molecule `O=NN(CCCl)C(=O)NCCCl` [BCNU, N,N'-bis(2-cholorethyl)-N-nitrosourea], the viability at 80 µM in series [9] was below 0.1%. Further, the cells killed entry in series [10] is given as “greater than 99%”. Besides, in series [11], the “killing by BCNU” value was “completely resistant”. Besides, the clonogenic survival in series [12] (30 μM BCNU & BG, wtMGMT K562 cells) is below 1%; in series [13] (30 μM BCNU & BG, ΔMGMT K562 cells) it was 20%. Also, the IC50 came to 4 µM in series [12] (setting [21]); 11.3 µM in [13] (setting [21]); 1.3 µM in [14] (K562, read-out: BCNU IC50, clonogenic survival). For the same molecule, the IC90 was 16 µM in series [12] (setting [22]); above 30 µM in [13] (setting [22]); 5 µM in series [14] (K562, read-out: BCNU IC90, clonogenic survival). In addition, in [15] (10 μM BG and 10 μM BCNU, ΔMGMT transduced CD34+), the cells resistant entry is given as “approximately 25%”. Besides, in series [15] (ΔMGMT transduced CD34+ derived colonies), the “colonies very resistant to BG & BCNU” value is on record as “Over 30%”.
For the molecule `Nc1nc(OCc2ccccc2)c2[nH]cnc2n1` [BG, O^6 -benzylguanine], the “concentration needed to reduce colony formation to <1 per 1000 cells plated” value in series [2] worked out at 200 µM. Further, the “concentration required to reduce colony formation to <1 per 1000 cells plated” value in series [3] is 50 µM. The “survival under combined BG and BCNU” value in series [4] (350 μM BG with 80 μM BCNU) is listed as “substantial survival”. Besides, the AGT activity result in series [16] is reported as “undetectable”. For the same molecule, the activity at 5 µM in series [17] is above 90%. Further, the IC50 in series [5] was 0.05 µM. In series [7], the “Increase of ED50 with P140A AGT” value is listed as 30 fold. For the same molecule, the “Increase of ED50 with G156A AGT” value in [8] was found to be 60 fold.
For `Nc1nc(OCc2ccccc2)c2ncn([C@H]3C[C@H](O)[C@@H](CO)O3)c2n1` [dBG], the “solubility in aqueous media compared to other BGs” value in series [18] is reported as “superior solubility”. For the same molecule, the “potency relative to BG (less potent)” value in [19] came to 10 fold. In series [20], the “BCNU-potentiating effects compared with BG” value is listed as “quite comparable”.
